This passage reports Activity results from ChEMBL document CHEMBL1150758, “Heyneanine hydroxyindolenine, a new indole alkaloid from Ervatamia coronaria var. plena” (J Nat Prod, 1988).

Structures are written as SMILES. Calls of active or inactive are those of the source. No cut-off for these calls is given here.

One assay deals with KB. Description: Cytotoxicity against human KB cells. Type of assay: functional, cell-based.
The test system of the next assay is P388. In words: Cytotoxicity against mouse P388 cells. Type of assay: functional, cell-based.

For `CC[C@H]1C[C@@H]2CN3CC[C@]4(O)C(=Nc5ccccc54)[C@](C(=O)OC)(C2)[C@H]13`, the outcome in the assay on KB and in the assay with P388 was inactive.
In the case of `CC[C@H]1C[C@@H]2CN3CC[C@]4(O)C(=Nc5ccc(OC)cc54)[C@](C(=O)OC)(C2)[C@H]13`, the result with KB and in the assay on P388 was inactive.
As to `COC(=O)[C@@]12C[C@@H]3C[C@H]([C@H](C)O)[C@@H]1N(CC[C@]1(O)C2=Nc2ccc(OC)cc21)C3`, the result in the assay with KB and with P388 was inactive.
Consider `COC(=O)[C@@]12C[C@@H]3C[C@H]([C@H](C)O)[C@@H]1N(CC[C@]1(O)C2=Nc2ccccc21)C3`, for which the result with KB and with P388 was inactive.
With `CC[C@H]1C[C@H]2C[C@@]3(C(=O)OC)c4[nH]c5ccccc5c4CCN(C2=O)[C@@H]13`, the outcome in the assay on KB and with P388 was inactive.
